In patent publication US12280046B2, “Melanocortin subtype-2 receptor (MC2R) antagonist for the treatment of disease” (Crinetics Pharmaceuticals, Inc., priority 2021, dated 2025):

What was measured:
MC3R = target: T1, MC3R (Homo sapiens, UniProt P41968); assay: Commercially available MC3R membrane binding assay; conditions: greater than highest concentration tested
T1 construct: purchased
Procedure: (§1) The selectivity over other human MCR subtypes was evaluated using commercially available MC1R, MC3R, MC4R, and MCSR membrane binding assays. The half maximal inhibitory concentration in the binding assays (IC50) were determined to be greater than the highest concentration tested, or >10,000 nM, >1000 nM, >10,000 nM and >1000 nM for MC1R, MC3R, MC4R and MCSR, respectively. Compound 1 is >2900-fold selective for MC2R versus the other human MCRs.

[1] = test system: 87 targets including G-protein coupled receptors, nuclear receptors, other cell surface receptors, ion channels, enzymes, and transporters; assay: Eurofins Panlabs SafetyScreen off-target selectivity panel; conditions: single concentration 10 μM
Procedure: (§2) Compound 1 was tested at Eurofins Panlabs Discovery Services Taiwan, Ltd. for evaluation in their SafetyScreen™ panel of assays. This included selectivity assays at 87 targets including G-protein coupled receptors, nuclear receptors, other cell surface receptors, ion channels, enzymes, and transporters.

[2] = test system: ACTH-stimulated corticosterone; assay: Single oral dose with repeated ACTH(1-24) challenges in rats; type: in vivo, rat; conditions: for suppression of ACTH-stimulated corticosterone: vs vehicle
Procedure: The ability of a single dose of Compound 1 to suppress corticosterone after repeated ACTH(1-24) (1 μg/kg) challenges was evaluated to determine the reproducibility of the ACTH-stimulated corticosterone response and the amount of time required to restore the corticosterone response to vehicle levels.
Compound 1 suppressed ACTH-stimulated corticosterone at 1 hour (44% and 88% with 3 and 30 mg/kg, respectively) and 4 hours (36% and 84% with 3 and 30 mg/kg, respectively) post-oral administration compared to vehicle treatment.

MCSR = target: T2, MCSR (Homo sapiens, UniProt P33032); assay: Commercially available MCSR membrane binding assay; conditions: greater than highest concentration tested
T2 construct: purchased
T2 sequence (P33032 whole entry): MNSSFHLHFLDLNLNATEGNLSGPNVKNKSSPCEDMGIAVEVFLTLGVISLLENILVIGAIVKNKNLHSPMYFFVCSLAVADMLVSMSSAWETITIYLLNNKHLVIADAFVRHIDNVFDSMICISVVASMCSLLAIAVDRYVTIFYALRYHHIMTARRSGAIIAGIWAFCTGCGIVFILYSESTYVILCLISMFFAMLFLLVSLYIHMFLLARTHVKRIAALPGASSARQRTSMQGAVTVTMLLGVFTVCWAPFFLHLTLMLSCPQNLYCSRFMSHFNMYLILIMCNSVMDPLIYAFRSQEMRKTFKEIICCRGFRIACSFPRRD
Procedure: as §1

sodium channel (site 2) = assay: SafetyScreen panel: sodium channel site 2; type: binding; conditions: 10 μM
Procedure: as §2

[3] = Phase 1 SAD study, pharmacokinetics in healthy volunteers; type: in vivo, human
Excerpt: This Phase 1, first-in-human, double-blind, randomized, placebo-controlled study will evaluate the safety of Compound 1 in healthy volunteers as well as the relationship between exposure and pharmacodynamic (PD) parameters, including ACTH-stimulated and endogenous cortisol secretion measured in blood, saliva, and urine. Results will be used to inform endpoints and other parameters in future later studies in patients with Cushing's disease (CD) or other diseases of excess adrenocorticotropic hormone (ACTH), including Congenital Adrenal Hyperplasia (CAH) and Ectopic ACTH Syndrome (EAS).
SAD/Part 1: ascending single dose, randomized, placebo-controlled, double-blind; 5 planned and up to 8 total cohorts, n=64. In each cohort, 6 subjects will receive Compound 1, 2 subjects will receive the placebo. Doses will escalate from 10 mg in cohort 1 to no more than 250 mg.
Data shown are mean±SEM. All doses n=6. Cohort 4 (n=6, 80 mg) was evaluated in the high dose ACTH-stimulation test, while cohort 5 (n=6, 80 mg) was evaluated in the low dose ACTH-stimulation test.

human MC2R = target: T3, human MC2R (Homo sapiens, UniProt Q01718); assay: Inhibition of ACTH binding: radioactive competition binding assay, hMC2R membranes
T3 construct: host or cells: CellSensor CRE-bla CHO-K1
T3 sequence (Q01718 whole entry): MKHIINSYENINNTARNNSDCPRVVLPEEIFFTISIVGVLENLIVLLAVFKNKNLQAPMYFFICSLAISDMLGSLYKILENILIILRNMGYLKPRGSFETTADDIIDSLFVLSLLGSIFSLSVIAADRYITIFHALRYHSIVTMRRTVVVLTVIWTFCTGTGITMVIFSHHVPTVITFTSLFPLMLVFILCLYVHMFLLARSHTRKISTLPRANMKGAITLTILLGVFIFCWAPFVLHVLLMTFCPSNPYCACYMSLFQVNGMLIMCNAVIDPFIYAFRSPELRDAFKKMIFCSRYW
T3 sequence (Q8TCY5 whole entry partner): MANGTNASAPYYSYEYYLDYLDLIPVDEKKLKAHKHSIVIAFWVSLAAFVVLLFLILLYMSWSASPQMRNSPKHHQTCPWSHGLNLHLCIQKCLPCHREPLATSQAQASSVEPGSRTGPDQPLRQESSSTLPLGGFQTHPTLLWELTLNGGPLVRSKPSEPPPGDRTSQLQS
Procedure: Crude membrane fractions are prepared from CellSensor CRE-bla CHO-K1 cells stably expressing functional hMC2 receptor (ThermoFisher #K1483). The cells are cultured to 85-100% confluency in growth media [GlutaMax DMEM (Gibco #10569-010) supplemented with 10% dialyzed fetal bovine serum (Gemini Bio-Products #100-108), 0.1 mM non-essential amino acids (Gibco #11140-050), 100 U/mL penicillin; 100 μg/mL streptomycin; 2 mM L-glutamine (Gemini Bio-Products #400-110), 5 μg/mL blasticidin (GoldBio #B-800-100), 100 μg/mL zeocin (Invitogen #R25005) and 600 μg/mL hygromycin B (GoldBio #31282-04-9)]. Cells were collected and washed in Dulbecco's phosphate buffered saline (Corning #21-031-CV). […]
The inhibition of binding to the human MC2R receptor was measured in a radioactive competition binding assay using the radiolabeled [^125I]-TYR^23]-ACTH (1-39) ligand (PerkinElmer #NEX083, custom synthesis) as the probe ligand for the receptor. […] The radioactive signal was detected using a MicroBetaTriLux 1450 LSC (PerkinElmer). […]
The selectivity over other human MCR subtypes was evaluated using commercially available MC1R, MC3R, MC4R, and MCSR membrane binding assays. […]

5-HT1B receptor = 5-HT1B receptor (Homo sapiens, UniProt P28222); assay: 5-HT1B functional dose response, agonist and antagonist modes; type: biochemical
5-HT1B receptor, sequence (P28222 whole entry): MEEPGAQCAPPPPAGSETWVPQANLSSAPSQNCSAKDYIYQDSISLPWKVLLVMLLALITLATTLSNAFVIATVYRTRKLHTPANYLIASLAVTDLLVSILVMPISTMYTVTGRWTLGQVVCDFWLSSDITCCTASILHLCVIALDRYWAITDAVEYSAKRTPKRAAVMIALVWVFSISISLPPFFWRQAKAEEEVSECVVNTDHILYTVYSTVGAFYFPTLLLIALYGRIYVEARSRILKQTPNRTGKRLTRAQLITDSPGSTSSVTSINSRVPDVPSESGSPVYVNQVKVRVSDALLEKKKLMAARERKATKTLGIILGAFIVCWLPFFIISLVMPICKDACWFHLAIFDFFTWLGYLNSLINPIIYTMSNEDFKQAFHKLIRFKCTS
Excerpt: The selectivity of Compound 1 for hMC2R over 5-HT1B is >2200-fold.

[4] = test system: calcium channel L-type (phenylalkylamine); assay: SafetyScreen panel: calcium channel L-type; type: binding; conditions: 10 μM
Procedure: as §2

T1 sequence (P41968 whole entry): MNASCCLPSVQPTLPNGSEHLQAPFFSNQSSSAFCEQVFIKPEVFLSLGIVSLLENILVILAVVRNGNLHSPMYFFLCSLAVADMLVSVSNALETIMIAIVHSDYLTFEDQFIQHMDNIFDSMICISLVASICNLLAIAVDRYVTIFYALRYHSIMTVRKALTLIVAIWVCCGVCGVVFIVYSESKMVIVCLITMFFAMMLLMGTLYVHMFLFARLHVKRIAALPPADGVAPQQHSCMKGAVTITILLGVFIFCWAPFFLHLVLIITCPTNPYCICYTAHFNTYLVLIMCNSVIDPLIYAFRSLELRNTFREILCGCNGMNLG

IC50 (MC3R): > 1 µM | IC50 (MCSR): > 1 µM | Tmax ([3]; human, in vivo, single oral dose, at efficacious doses): ~1 h | half-life ([3]; human, in vivo, single oral dose, healthy volunteers): ~24 h | Ki (human MC2R; hMC2R membranes, [125I]-Tyr23-ACTH(1-39) probe, read-out: equilibrium inhibitory constant (Ki) in a binding assay): < 0.01 µM | selectivity for MC2R versus the other human MCRs (human MC2R; over MC1R, MC3R, MC4R, MCSR): > 2900 fold | selectivity for hMC2R over 5-HT1B (5-HT1B receptor): > 2200 fold | agonistic activity (5-HT1B receptor; agonist mode, no signal up to 3000 nM): no agonistic activity | IC50 (5-HT1B receptor; antagonist mode, read-out: antagonistic activity IC50): ~0.75 µM
Compound: CCOc1ccccc1-c1ccc(N2CCN(C(=O)C3(C(F)(F)F)CCC3)C[C@H]2CC)c(C(=O)N[C@@H]2CN3CCC2CC3)n1 [Compound 1, 6-(2-ethoxyphenyl)-3-((R)-2-ethyl-4-(1-(trifluoromethyl)cyclobutane-1-carbonyl)piperazin-1-yl)-N—((S)-quinuclidin-3-yl)picolinamide]
activity across the panel [1]: little activity across the panel | ACTH-stimulated corticosterone ([2]; 24 and 48 hours after single oral 3 or 30 mg/kg): returned to normal, vehicle levels | suppression of ACTH-stimulated corticosterone ([2]; 1 hour post-oral administration, 3 mg/kg): 44% | suppression of ACTH-stimulated corticosterone ([2]; 1 hour post-oral administration, 30 mg/kg): 88% | suppression of ACTH-stimulated corticosterone ([2]; 4 hours post-oral administration, 3 mg/kg): 36% | suppression of ACTH-stimulated corticosterone ([2]; 4 hours post-oral administration, 30 mg/kg): 84% | inhibition/activity (sodium channel (site 2)): > 70% | oral bioavailability / exposure ([3]; single ascending oral doses): oral bioavailability with dose-proportional exposure | inhibition/activity [4]: > 70%
